# Key:
# Format in all cases: in vivo
# [1] = system: Type 2 diabetes model db/db mice; assay: Nateglinide load test after repeated dosing in db/db mice (Example IV); conditions: for Blood glucose level 30 minutes after loading / Blood glucose level 120 minutes after loading / Blood glucose level before loading: db/db mice, compound successively dosed 80 mg/kg p.o. twice daily, day 25, Mean ± SD, N = 5; for Blood glucose level 30 minutes after loading / Blood glucose level 120 minutes after loading: loading with glucose 1 g/kg and nateglinide 50 mg/kg p.o.; for Blood glucose level before loading: starved 17 hours, nateglinide load test
# Description: Type 2 diabetes model db/db mice (age 6 weeks) were fed and kept with a feed twice daily over one hour starting 9 am and one hour starting 3 pm, for one week. Then, the mice were divided into groups with matched blood glucose levels and body weights. Subsequently, the inhibitor B of renal glucose reabsorption at 80 mg/kg or nateglinide at 80 mg/kg was orally given, immediately before feeding twice daily. Only a vehicle was orally given immediately before feeding twice daily to the animals of a control group. On day 25 from the start of administration, the mice of the individual experimental groups were starved for 17 hours and then orally given glucose (1 g/kg) and nateglinide (50 mg/kg). Blood glucose levels were measured before and after the administration, to examine whether or not the hypoglycemic action of nateglinide could be observed (nateglinide load test).
# [2] = system: glucose-loaded rats; assay: Blood glucose time course after oral glucose loading in rats (Example I); conditions: Wistar rats, glucose 1 g/kg p.o.
# Description: Wistar rats (age of 7 weeks; male) were divided into groups with matched body weights. After 17-hour starvation, glucose was orally given at 1 g/kg to the animals. Immediately after the administration, the inhibitor A of renal glucose reabsorption or the inhibitor B of renal glucose reabsorption (A at 30 mg/kg or 60 mg/kg; B at 30 mg/kg or 80 mg/kg) or glibenclamide (1 mg/kg or 2 mg/kg) or nateglinide (50 mg/kg or 80 mg/kg) was orally given. Additionally, a group on the combined use of both of an inhibitor of renal glucose reabsorption and a hypoglycemic agent was also prepared. A vehicle was orally given to a control group after glucose administration.
# Blood glucose was measured in a time course.
# [3] = system: Male Wistar rats; assay: Assessment of excretion action of urine sugar in rat (Test Example 1B); conditions: Oral Administration in Rat (24 hours)
# Description: Male Wistar rats aged 5 weeks (purchased from Charles River Japan, Inc.) were acclimatized in metabolic cages for one week, for use at this experiment. The test compounds suspended in olive oil were prepared into solutions to a dose of 5 ml per 1 kg rat body weight. After the rats were starved for 4 hours, the test compounds were orally given at 10, 30 and 100 mg/kg to the rats at 11 am. Immediately after dosing until 24 hours later, urine was collected. The volume of urine was measured. Then, urine glucose concentration was assayed by glucose oxidase method, to calculate the glucose excretion into urine per individual per day. As a positive control, 3-(5-benzo[b]furanyl)-2'-(6-o-methoxycarbonyl-β-D-glucopyranosyldxy)-6'-hydroxy-4'-methylpropiophenone [under a different name of 3-(benzo[b]furan-5-yl)-2', 6'-dihydroxy-4'-methylpropiophenone 2'-o-(6-o-methoxycarbonyl-β-D-glucopyranoside)] was used.
# [4] = system: Male Wistar rats; assay: Assessment of excretion action of urine sugar in rat (Test Example 2A); conditions: urine collected 24 hours
# Description: Male Wistar rats aged 5 weeks (purchased from Charles River Japan, Inc.) were acclimatized in metabolic cages for one week, for use at this experiment. The test compounds suspended in olive oil were dosed at 5 ml per 1 kg rat body weight.
# After the rats were starved for 4 hours, the test compounds were orally given to the rats at 11 am. Immediately after dosing until 24 hours later, urine was collected. The volume of urine was measured. Then, urine sugar concentration was assayed by glucose oxidase method, to calculate the glucose excretion into urine per individual per day.
# [5] = system: Type 2 diabetic model GK rats; assay: Blood glucose after repeated once daily dosing in GK rats (Example III); conditions: once daily p.o., vs vehicle-dosed group (Fig. 4)
# Description: These agents were orally given once daily at the same time period as in the group administered with a single one agent. Only a vehicle was given orally to a control group. On day 25 after the start of administration, blood glucose was assayed sequentially, to compare the groups in terms of the resulting blood glucose levels.
# [6] = system: glucose-loaded mice; assay: Blood glucose time course after oral glucose loading in KK mice (Example II); conditions: glucose 1 g/kg p.o.
# Description: KK mice (age of 25 weeks; male) fed with a commercially available high-calories feed for breeding (CMF; Oriental Yeast) were divided into groups with matched body weights. After starvation for 17 hours, glucose was orally given at 1 g/kg. Immediately thereafter, the inhibitor A of renal glucose reabsorption (30 mg/kg or 45 mg/kg) or metformin (200 mg/kg or 300 mg/kg) was orally given. Additionally, a group given with the inhibitor A of renal glucose reabsorption (30 mg/kg) and metformin (200 mg/kg) was prepared. A vehicle was orally given to a control group after glucose dosing.
# Blood glucose level was assayed in a time course.
# [7] = system: Type 2 diabetes model Zucker diabetic fatty rats; assay: Insulin content in pancreas after repeated dosing in Zucker diabetic fatty rats, ELISA (Example V); conditions: twice daily p.o., day 39, starved 18 hours, inhibitor A 30 mg/kg, metformin 200 mg/kg, or both, ELISA of pancreas homogenates (Fig. 5)
# Description: The agents were orally given twice daily at the same time period as in the case of the groups administered with a single one of these agents. Only a vehicle was orally given twice daily to the animals in a control group. On day 39 from the start of administration, the animals were starved for 18 hours. Then, pancreas was resected from the animals, for the assay of insulin in pancreas homogenates by ELISA, to compare the groups in terms of insulin content in pancreas.
# [8] = nateglinide 50 mg/kg, inhibitor B 30 mg/kg, or both, p.o., vs vehicle group (Fig. 2)
# [9] = nateglinide 80 mg/kg or inhibitor B 80 mg/kg p.o., vs lower dose (Fig. 2)
# [10] = Dose 100 mg/kg p.o. in olive oil
# [11] = glibenclamide 1 mg/kg, inhibitor A 30 mg/kg, or both, p.o., vs vehicle group (Fig. 1)
smiles,measurement,setting,value
COC(=O)OC[C@H]1O[C@@H](Oc2cc(C)cc(O)c2C(=O)CCc2ccc3occc3c2)[C@H](O)[C@@H](O)[C@@H]1O [3-(5-benzo[b]furanyl)-2'-(6-o-methoxycarbonyl-β-D-glucopyranosyloxy)-6'-hydroxy-4'-methylpropiophenone],"hyperglycemia due to glucose loading, 30 minutes after loading with glucose and nateglinide","[1]; db/db mice given inhibitor B 80 mg/kg twice daily long-term, compared with vehicle-dosed and nateglinide-dosed groups",greatly suppressed hyperglycemia
same,Blood glucose level 30 minutes after loading,[1],172 ± 14 mg/dL
same,Blood glucose level 120 minutes after loading,[1],103 ± 5 mg/dL
same,Blood glucose level before loading,[1],131 ± 6 mg/dL
same,blood glucose level 180 minutes after glucose loading and thereafter,"[2]; inhibitor B 30 mg/kg alone or with nateglinide 50 mg/kg, p.o., vs vehicle group (Fig. 2)",lower than that in the vehicle-dosed group
same,hyperglycemia / blood glucose level 30 minutes after glucose loading,[2]; [8],not reduced as greatly as in the case of nateglinide
same,pattern of glycemic suppression at increased dose,[2]; [9],pattern of glycemic suppression was also observed
same,Excreted urine sugar,[3]; Dose 10 mg/kg,2 mg
same,Excreted urine sugar,[3]; Dose 30 mg/kg,78 mg
same,Excreted urine sugar,[3]; Dose 100 mg/kg,274 mg
Cc1[nH]nc(O[C@@H]2O[C@H](CO)[C@@H](O)[C@H](O)[C@H]2O)c1Cc1ccc(OC(C)C)cc1 [4-[(4-isopropoxyphenyl)methyl)-5-methyl-1H-pyrazole-3-o-β-D-glucopyranoside],Excreted urine sugar,[4]; [10],14 mg
"CCc1ccc(Cc2c(O[C@@H]3O[C@H](COC(=O)OC)[C@@H](O)[C@H](O)[C@H]3O)nn(C(CF)CF)c2C(F)(F)F)cc1 [Compound of Production Example 2B, 4'-[(4'-ethylphenyl)methyl]-1'-(1',3'-difluoro-2'-propyl) -5'-(trifluoromethyl) -1H-pyrazole-3'-o-(6-o-methoxycarbonyl-β-D-glucopyranoside)]",Excreted urine sugar,[3]; Dose 10 mg/kg,136 mg
same,Excreted urine sugar,[3]; Dose 30 mg/kg,272 mg
same,Excreted urine sugar,[3]; Dose 100 mg/kg,524 mg
"CCc1ccc(Cc2c(O[C@@H]3O[C@H](COC(=O)OC)[C@@H](O)[C@H](O)[C@H]3O)nn(Cc3ccccc3)c2C(F)(F)F)cc1 [Compound of Production Example 4-A, 4'-[(4'-ethylphenyl)methyl]-1'-benzyl-5'-trifluoromethyl-1H-pyrazole-3'-o-(6-carbomethoxy)-β-D-glucopyranoside]",Excreted urine sugar,[4]; [10],27 mg
"CCc1ccc(Cc2c(O[C@@H]3O[C@H](COC(=O)OC)[C@@H](O)[C@H](O)[C@H]3O)nn(Cc3ccc(OC)cc3)c2C(F)(F)F)cc1 [Compound of Production Example 6-A, 4'-[(4'-ethylphenyl)methyl]-1'-[(4'-methoxyphenyl)methyl]-5'-trifluoromethyl-1H-pyrazole-3'-o-(6-carbomethoxy)-β-D-glucopyranoside]",Excreted urine sugar,[4]; [10],59 mg
"CCc1ccc(Cc2c(O[C@@H]3O[C@H](COC(=O)OC)[C@@H](O)[C@H](O)[C@H]3O)nn(-c3ccccc3)c2C(F)(F)F)cc1 [Compound of Production Example 8-A, 4'-[(4'-ethylphenyl)methyl]-1'-phenyl-5'-trifluoromethyl-1H-pyrazole-3'-o-(6-carbomethoxy)-β-D-glucopyranoside]",Excreted urine sugar,[4]; [10],4.1 mg
"COC(=O)OC[C@H]1O[C@@H](Oc2nn(C(C)C)c(C)c2Cc2ccc(OC)c(F)c2)[C@H](O)[C@@H](O)[C@@H]1O [Compound of Production Example 10-A, 4'-[(3'-fluoro-4'-methoxyphenyl)methyl]-1'-isopropyl-5'-methyl-1H-pyrazole-3'-o-(6-carbomethoxy)-β-D-glucopyranoside]",Excreted urine sugar,[4]; [10],734 mg
"COC(=O)OC[C@H]1O[C@@H](Oc2nn(C(C)C)c(C)c2Cc2ccc(C)c(F)c2)[C@H](O)[C@@H](O)[C@@H]1O [Compound of Production Example 14-A, 4'-[(3'-fluoro-4'-methylphenyl)methyl]-1'-isopropyl-5'-methyl-1H-pyrazole-3'-o-(6-carbomethoxy)-β-D-glucopyranoside]",Excreted urine sugar,[4]; [10],918 mg
"CCc1ccc(Cc2c(O[C@@H]3O[C@H](COC(=O)OC)[C@@H](O)[C@H](O)[C@H]3O)nn(C(C)C)c2C)cc1 [Compound of Production Example 16-A, 4'-[(4-ethylphenyl)methyl]-1'-isopropyl-5'-methyl-1H-pyrazole-3'-o-(6-carbomethoxy)-β-D-glucopyranoside]",Excreted urine sugar,[4]; Dose 3 mg/kg p.o. in olive oil,28 mg
same,Excreted urine sugar,[4]; Dose 10 mg/kg p.o. in olive oil,263 mg
same,Excreted urine sugar,[4]; Dose 30 mg/kg p.o. in olive oil,294 mg
same,Excreted urine sugar,[4]; [10],598 mg
COc1ccc(Cl)cc1C(=O)NCCc1ccc(S(=O)(=O)NC(=O)NC2CCCCC2)cc1 [glibenclamide],blood glucose level,"[5]; day 25, glibenclamide 3 mg/kg, inhibitor A 30 mg/kg, or both",no difference was observed from the vehicle-dosed group
same,blood glucose level,"[5]; day 25, glibenclamide 6 mg/kg",did not produce any difference in blood glucose level from the vehicle-dosed group
same,blood glucose level 120 minutes after glucose loading and thereafter,[2]; [11],lowered blood glucose
same,hyperglycemia / blood glucose level immediately after glucose loading (30 minutes),[2]; [11],did not suppress hyperglycemia
same,pattern of glycemic suppression at increased dose,"[2]; glibenclamide 2 mg/kg or inhibitor A 60 mg/kg p.o., vs lower dose (Fig. 1)",did not change
CN(C)C(=N)N=C(N)N [metformin],increase of blood glucose / hyperglycemia 30 minutes after glucose loading,"[6]; metformin 200 mg/kg or inhibitor A 30 mg/kg p.o., vs control group (Fig. 3)",did not suppress the increase of blood glucose
same,increase of blood glucose 60 minutes later and thereafter,[6]; metformin 200 mg/kg p.o. (Fig. 3),suppressed the increase
same,pattern of glycemic suppression at elevated dose,"[6]; metformin 300 mg/kg or inhibitor A 45 mg/kg p.o., vs lower dose (Fig. 3)",did not change
same,insulin content in pancreas,[7],no difference was observed
CC(C)[C@H]1CC[C@H](C(=O)N[C@H](Cc2ccccc2)C(=O)O)CC1 [nateglinide],Blood glucose level 30 minutes after loading,[1],259 ± 18 mg/dL
same,Blood glucose level 120 minutes after loading,[1],144 ± 20 mg/dL
same,Blood glucose level before loading,[1],158 ± 12 mg/dL
same,blood glucose level 120 minutes after glucose loading and thereafter,"[2]; nateglinide 50 mg/kg p.o., vs vehicle-dosed group (Fig. 2)",did not lower the blood glucose level
same,hyperglycemia / blood glucose level 30 minutes after glucose loading,[2]; [8],more highly suppressed hyperglycemia
same,hyperglycemia / blood glucose level 60 minutes after glucose loading,[2]; [8],more highly suppressed hyperglycemia
same,pattern of glycemic suppression at increased dose,[2]; [9],did not change

# Source: EP1500403A1, “PREVENTIVE/REMEDY FOR DIABETES” (Ajinomoto Co., Inc., priority 2002, dated 2003)
